The results in this text go back to ChEMBL document CHEMBL5579877, “Design and Evaluation of 3-Phenyloxetane Derivative Agonists of the Glucagon-Like Peptide-1 Receptor” (J Med Chem, 2024).

Each structure is given as a SMILES string. pIC50: −log10 of the molar value. Activity calls are given as the source filed them. The calls are words filed in the database; no cut-off is given here.

Series [1] in a line: Permeability across basolateral to apical side in human Caco-2 cells at 10 uM incubated for 120 mins by LC-MS/MS analysis. It counts as ADME, cell-based. The note with it: read-out: permeability. A general note: Caco-2 monolayers are a common model of the intestinal barrier.
Series [2] is described as follows: Efflux ratio of permeability across basolateral to apical side over apical to basolateral side in human Caco-2. Format: ADME, cell-based.
Another series addresses Cytochrome P450 2C19 (Homo sapiens, UniProt P33261). As to the kind of experiment: Inhibition of CYP2C19 in human liver microsomes using S-mephenytoin as substrate preincubated for 5 mins followed by NADPH addition and measured after 45 mins by LC-MS/MS analysis. It counts as ADME, Microsome. (In general: Liver microsomes are a subcellular fraction often used to study metabolism.)

The target of series [3] is T1, Glucagon-like peptide 1 receptor (Mus musculus) (UniProt O35659).
T1 sequence (whole entry): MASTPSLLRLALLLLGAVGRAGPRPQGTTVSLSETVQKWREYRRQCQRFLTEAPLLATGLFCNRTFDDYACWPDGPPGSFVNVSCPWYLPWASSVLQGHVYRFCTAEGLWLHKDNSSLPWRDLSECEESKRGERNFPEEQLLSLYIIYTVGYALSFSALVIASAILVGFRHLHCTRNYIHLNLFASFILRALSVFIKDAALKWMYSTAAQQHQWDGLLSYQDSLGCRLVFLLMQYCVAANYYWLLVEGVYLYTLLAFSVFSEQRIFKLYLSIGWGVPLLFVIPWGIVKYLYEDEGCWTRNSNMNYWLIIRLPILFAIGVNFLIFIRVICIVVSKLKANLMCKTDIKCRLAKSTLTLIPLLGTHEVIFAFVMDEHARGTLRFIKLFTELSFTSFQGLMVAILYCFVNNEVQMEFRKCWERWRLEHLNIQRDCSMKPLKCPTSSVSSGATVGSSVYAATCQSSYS
Description: Activation of mouse GLP-1R.

The target of series [4] is T2, Glucagon-like peptide 1 receptor (Homo sapiens, UniProt P43220). Description: Activation of human GLP-1R. The note with it: filed as activator.
T2 sequence (P43220 whole entry): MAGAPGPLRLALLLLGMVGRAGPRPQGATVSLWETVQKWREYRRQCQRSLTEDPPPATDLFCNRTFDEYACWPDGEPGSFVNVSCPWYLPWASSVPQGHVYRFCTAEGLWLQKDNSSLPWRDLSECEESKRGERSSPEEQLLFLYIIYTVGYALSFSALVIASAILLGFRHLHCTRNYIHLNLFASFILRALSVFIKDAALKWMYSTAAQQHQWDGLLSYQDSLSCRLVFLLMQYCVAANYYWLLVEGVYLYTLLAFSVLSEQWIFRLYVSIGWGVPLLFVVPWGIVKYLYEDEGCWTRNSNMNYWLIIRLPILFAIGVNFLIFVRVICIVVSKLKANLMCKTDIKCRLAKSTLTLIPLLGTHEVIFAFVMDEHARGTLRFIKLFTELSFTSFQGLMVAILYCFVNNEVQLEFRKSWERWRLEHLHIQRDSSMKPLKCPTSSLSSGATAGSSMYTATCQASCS
Another series concerns the target Cytochrome P450 3A4 (Homo sapiens, UniProt P08684). As to the kind of experiment: Inhibition of CYP3A4 in human liver microsomes using testosterone as substrate preincubated for 5 mins followed by NADPH addition and measured after 5 mins by LC-MS/MS analysis. Format: ADME, Microsome.
Series [5] concerns the target T3, 5-hydroxytryptamine receptor 2A (Homo sapiens, UniProt P28223). As to the kind of experiment: Inhibition of 5HT2A (unknown origin).
The target in series [6] is T4, hERG (KCNH2) (Homo sapiens, UniProt Q12809). Description: Inhibition of human ERG at 10 uM by whole cell patch clamp method relative to control. It counts as toxicity. Background: The patch-clamp technique gives a direct electrical read-out from membranes.
T4 sequence (Q12809 whole entry): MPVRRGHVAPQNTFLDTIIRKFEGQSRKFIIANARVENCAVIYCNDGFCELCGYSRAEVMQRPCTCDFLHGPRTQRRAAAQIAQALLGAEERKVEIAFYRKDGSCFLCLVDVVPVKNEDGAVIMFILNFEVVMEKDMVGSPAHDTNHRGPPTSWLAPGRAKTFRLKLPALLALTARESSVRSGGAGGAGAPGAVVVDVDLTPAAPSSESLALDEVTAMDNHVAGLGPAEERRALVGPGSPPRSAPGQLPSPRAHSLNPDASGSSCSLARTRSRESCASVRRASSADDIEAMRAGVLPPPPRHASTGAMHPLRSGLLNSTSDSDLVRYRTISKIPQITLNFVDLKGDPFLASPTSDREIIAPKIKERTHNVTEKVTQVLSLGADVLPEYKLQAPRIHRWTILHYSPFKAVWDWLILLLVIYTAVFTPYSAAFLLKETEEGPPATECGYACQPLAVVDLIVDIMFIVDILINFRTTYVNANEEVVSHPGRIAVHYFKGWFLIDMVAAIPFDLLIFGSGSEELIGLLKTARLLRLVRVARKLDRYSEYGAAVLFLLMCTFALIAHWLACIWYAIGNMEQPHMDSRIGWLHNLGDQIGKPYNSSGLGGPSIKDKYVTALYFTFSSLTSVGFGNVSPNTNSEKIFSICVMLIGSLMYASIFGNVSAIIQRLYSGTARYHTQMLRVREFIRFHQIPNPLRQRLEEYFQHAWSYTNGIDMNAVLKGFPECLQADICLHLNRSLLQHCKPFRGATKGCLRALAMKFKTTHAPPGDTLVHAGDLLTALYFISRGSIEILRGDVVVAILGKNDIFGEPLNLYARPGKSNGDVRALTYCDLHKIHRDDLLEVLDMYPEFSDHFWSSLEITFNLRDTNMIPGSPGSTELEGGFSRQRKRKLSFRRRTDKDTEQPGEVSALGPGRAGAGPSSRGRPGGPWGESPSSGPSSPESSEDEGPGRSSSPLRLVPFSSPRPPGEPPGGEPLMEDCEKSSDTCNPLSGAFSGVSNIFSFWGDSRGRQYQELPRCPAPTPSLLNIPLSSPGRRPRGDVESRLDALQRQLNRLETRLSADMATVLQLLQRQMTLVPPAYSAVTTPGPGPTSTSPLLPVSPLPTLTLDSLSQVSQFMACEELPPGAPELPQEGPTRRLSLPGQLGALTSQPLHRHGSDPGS
Series [7] is described as follows: Drug distribution in rat liver at 5 mg/kg, po. The note with it: in vivo. Format: ADME, organism-based.
In series [8] the target is T3, 5-hydroxytryptamine receptor 2A. Description: Inhibition of 5HT2A (unknown origin) relative to control. The note with it: concentration not given here.
Series [9] concerns the target T2, Glucagon-like peptide 1 receptor. As to the kind of experiment: Agonist activity at GLP-1R (unknown origin) assessed as beta-arrestin 2 recruitment. It counts as functional.
For series [10] the target is unchanged. As to the kind of experiment: Agonist activity at GLP-1R (unknown origin) assessed as beta-arrestin 1 recruitment. Format: functional.
A short description of series [11]: Oral clearance in ICR mouse at 5 mg/kg, po by LC-MS/MS analysis. The note with it: in vivo. Format: ADME, organism-based.
The species entered for a further series is Macaca mulatta. Description: Activation of monkey GLP-1R. Particulars: filed as activator.
Series [12] is described as follows: Drug distribution in rat stomach at 5 mg/kg, po. It counts as ADME, organism-based. The note with it: in vivo.
The target of series [13] is T5, Glucagon-like peptide 1 receptor (Rattus norvegicus) (UniProt P32301).
T5 sequence (whole entry): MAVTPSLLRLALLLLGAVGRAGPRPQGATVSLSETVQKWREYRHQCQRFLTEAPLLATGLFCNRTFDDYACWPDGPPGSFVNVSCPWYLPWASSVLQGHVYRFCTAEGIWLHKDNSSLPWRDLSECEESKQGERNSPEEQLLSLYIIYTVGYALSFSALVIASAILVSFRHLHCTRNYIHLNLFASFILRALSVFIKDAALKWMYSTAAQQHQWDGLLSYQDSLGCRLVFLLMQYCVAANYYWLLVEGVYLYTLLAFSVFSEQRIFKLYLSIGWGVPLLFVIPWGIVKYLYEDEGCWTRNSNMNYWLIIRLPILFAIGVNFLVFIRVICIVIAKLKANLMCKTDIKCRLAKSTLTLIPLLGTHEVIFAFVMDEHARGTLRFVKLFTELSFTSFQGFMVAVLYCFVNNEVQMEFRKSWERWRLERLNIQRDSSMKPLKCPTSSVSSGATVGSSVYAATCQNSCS
Description: Activation of rat GLP-1R.

The nature of series [14]: Oral bioavailability in ICR mouse at 5 mg/kg by LC-MS/MS analysis. Format: ADME, organism-based. Particulars: in vivo.
Series [15] is described as follows: Half-life in rat at 5 mg/kg, po by LC-MS/MS analysis. It counts as ADME, organism-based. The note with it: in vivo.
The target of series [16] is T4, hERG (KCNH2). As to the kind of experiment: Inhibition of human ERG at 1 uM by whole cell patch clamp method relative to control. It counts as toxicity.
A short description of series [17]: Tmax in cynomolgus monkey at 2 mg/kg, iv. The note with it: in vivo. Format: ADME, organism-based, Macaca fascicularis.
The nature of series [18]: Drug distribution in rat intestine at 5 mg/kg, po. Format: ADME, organism-based. Particulars: in vivo.
The target in series [19] is T6, 5-hydroxytryptamine receptor 1A (Homo sapiens, UniProt P08908).
T6 sequence (P08908 whole entry): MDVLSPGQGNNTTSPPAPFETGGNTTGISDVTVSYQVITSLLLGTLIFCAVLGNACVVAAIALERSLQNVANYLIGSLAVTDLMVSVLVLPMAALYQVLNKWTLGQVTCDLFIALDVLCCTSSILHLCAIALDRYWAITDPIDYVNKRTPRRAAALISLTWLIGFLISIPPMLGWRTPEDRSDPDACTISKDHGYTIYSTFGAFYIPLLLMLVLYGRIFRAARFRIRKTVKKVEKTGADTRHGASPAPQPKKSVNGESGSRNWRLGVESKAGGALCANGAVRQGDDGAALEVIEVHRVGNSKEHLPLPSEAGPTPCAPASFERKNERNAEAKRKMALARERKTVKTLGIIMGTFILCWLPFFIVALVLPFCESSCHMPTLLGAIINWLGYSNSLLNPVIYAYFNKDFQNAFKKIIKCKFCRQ
Description: Inhibition of 5HT1A (unknown origin).

Series [20] is described as follows: Cmax in cynomolgus monkey at 20 mg/kg, po. It counts as ADME, organism-based, Macaca fascicularis. Particulars: in vivo.
The target of series [21] is T7, 5-hydroxytryptamine receptor 1A (Homo sapiens) (UniProt P08908).
T7 sequence (whole entry): T6 sequence (P08908 whole entry)
As to the kind of experiment: Inhibition of 5HT1A (unknown origin) relative to control. Particulars: concentration not given here.

For orientation: efflux ratio means a quotient of directional permeabilities that is used to spot active efflux. Broadly, the pIC50 is the IC50 on a negative log10 scale, so that one unit is a factor of ten. Broadly, the inhibition is the change of the read-out against control, counted positive when it falls. A word on the CL/F: it is the apparent clearance, not corrected for the fraction that reaches the circulation. The term bioavailability denotes the share of a dose that reaches the circulation, judged against a reference dose that is usually intravenous. Usually half-life stands for the time in which the quantity being followed falls by half. A word on the Tmax: it is the time at which the peak concentration occurs. A word on the Cmax: it is the highest concentration seen after dosing.

T3 sequence (P28223 whole entry): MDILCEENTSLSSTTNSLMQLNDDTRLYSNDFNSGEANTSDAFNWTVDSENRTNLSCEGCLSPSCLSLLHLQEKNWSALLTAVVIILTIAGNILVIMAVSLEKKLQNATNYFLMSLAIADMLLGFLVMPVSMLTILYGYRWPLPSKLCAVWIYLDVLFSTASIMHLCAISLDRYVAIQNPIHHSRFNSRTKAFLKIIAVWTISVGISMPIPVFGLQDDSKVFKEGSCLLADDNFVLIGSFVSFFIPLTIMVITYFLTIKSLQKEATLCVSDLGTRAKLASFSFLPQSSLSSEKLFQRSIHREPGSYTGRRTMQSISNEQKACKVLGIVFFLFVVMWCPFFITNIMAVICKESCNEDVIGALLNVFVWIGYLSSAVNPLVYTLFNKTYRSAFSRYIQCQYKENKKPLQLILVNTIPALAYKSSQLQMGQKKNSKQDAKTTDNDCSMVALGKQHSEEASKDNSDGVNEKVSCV
Sequence of Cytochrome P450 3A4 (P08684 whole entry): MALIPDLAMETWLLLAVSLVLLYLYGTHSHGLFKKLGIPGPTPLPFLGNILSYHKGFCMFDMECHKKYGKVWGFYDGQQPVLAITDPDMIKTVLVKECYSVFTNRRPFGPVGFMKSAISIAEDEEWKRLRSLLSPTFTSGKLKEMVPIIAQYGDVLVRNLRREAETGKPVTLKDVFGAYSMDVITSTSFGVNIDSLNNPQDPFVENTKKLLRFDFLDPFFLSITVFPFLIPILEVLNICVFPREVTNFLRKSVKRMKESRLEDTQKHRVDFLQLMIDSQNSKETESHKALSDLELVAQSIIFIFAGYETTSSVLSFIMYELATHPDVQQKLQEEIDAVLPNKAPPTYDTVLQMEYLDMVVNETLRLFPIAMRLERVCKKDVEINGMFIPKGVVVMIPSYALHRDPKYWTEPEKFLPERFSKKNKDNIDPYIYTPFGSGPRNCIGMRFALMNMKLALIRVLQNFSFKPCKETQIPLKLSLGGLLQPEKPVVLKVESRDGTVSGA
Sequence of Cytochrome P450 2C19 (P33261 whole entry): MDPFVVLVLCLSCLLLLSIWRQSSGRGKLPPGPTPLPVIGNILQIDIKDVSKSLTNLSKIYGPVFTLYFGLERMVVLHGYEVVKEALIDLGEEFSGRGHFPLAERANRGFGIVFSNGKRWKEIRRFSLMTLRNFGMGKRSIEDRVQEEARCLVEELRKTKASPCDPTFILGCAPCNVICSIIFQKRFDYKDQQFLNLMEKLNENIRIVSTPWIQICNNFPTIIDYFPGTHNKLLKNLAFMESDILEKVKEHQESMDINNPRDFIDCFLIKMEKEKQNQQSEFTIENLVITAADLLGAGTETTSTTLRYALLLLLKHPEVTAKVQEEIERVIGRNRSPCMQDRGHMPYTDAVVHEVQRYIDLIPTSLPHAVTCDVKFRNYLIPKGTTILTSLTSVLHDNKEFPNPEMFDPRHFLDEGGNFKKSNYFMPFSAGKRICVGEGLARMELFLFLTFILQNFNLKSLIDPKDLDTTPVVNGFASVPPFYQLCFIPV

For the compound `O=C(O)c1ccc2nc(CN3CCC(c4cccc(OCc5ccc(C6COC6)cc5F)n4)CC3)n(C[C@@H]3CCO3)c2c1`, the Papp B→A at 2 h, 10 µM in series [1] stood at 165 nm/s. Also, the efflux ratio in series [2] turned out to be 5.26. In addition, the pIC50 against Cytochrome P450 2C19 is under 5.00; against Cytochrome P450 3A4, under 5.00; in series [5] it was 5.06. Also, the result in series [3], in series [9], in [10] and in [13] was inactive. Further, the outcome (in series [4]; in the series listed under Macaca mulatta) was Active. Also, on hERG (KCNH2) [6], at 10 µM the inhibition was 40.7%. Moreover, the Drug uptake result in [7], in series [12] and in [18] was “Active” in each case. The same compound returned an inhibition in [8] of 57.8%. Also, the CL/F in [11] is 2.51 L/h/kg. Moreover, in series [14], the bioavailability worked out at 53.1%. In addition, in [15], the half-life is 0.84 h. This compound also displayed an inhibition at 1 µM on hERG (KCNH2) [16] of 3.75%. For the same compound, in series [17], the Tmax is 1.39 h.

Turning to `N#Cc1ccc(COc2cccc(C3CCN(Cc4nc5ccc(C(=O)O)cc5n4C[C@@H]4CCO4)CC3)n2)c(F)c1` [DANUGLIPRON], the values for the pIC50 (in [19]; against Cytochrome P450 2C19; at Cytochrome P450 3A4) were 5.62, under 5.00 and under 5.00, respectively. In series [1], the Papp B→A at 2 h, 10 µM was found to be 217 nm/s. The CL/F in series [11] is 2.19 L/h/kg. The bioavailability in series [14] is 54.2%. This compound had a half-life in [15] of 1.33 h. This compound also gave a Cmax in [20] of 163 µM. The Tmax in series [17] stood at 1.21 h. Also, the inhibition in series [21] came to 86.9%.
